Results published in patent publication US20250270218A1, “IMIDAZ0[1,2-A]PYRIMIDINE-5(1 H)-ONES AS WRN INHIBITORS” (Incyte Corporation, priority 2023, published 2025).

Columns and labels:
[1] = target: T1, WRN (Homo sapiens, UniProt Q14191); experiment: WRN Helicase activity assay (fluorescence DNA unwinding); format: biochemical; settings: 1-hr pre-incubation with enzyme; 25 nM forked dsDNA, 100 μM ATP, 1 nM WRN; geometric mean of at least 2 replicates
T1 construct: A His-tagged construct of WRN (AA S2-S1235) was produced and used for the ATPase assay; made in house; host or cells: Sf9 insect cells (baculovirus, pFastBac1)
T1 sequence (Q14191 2-1235): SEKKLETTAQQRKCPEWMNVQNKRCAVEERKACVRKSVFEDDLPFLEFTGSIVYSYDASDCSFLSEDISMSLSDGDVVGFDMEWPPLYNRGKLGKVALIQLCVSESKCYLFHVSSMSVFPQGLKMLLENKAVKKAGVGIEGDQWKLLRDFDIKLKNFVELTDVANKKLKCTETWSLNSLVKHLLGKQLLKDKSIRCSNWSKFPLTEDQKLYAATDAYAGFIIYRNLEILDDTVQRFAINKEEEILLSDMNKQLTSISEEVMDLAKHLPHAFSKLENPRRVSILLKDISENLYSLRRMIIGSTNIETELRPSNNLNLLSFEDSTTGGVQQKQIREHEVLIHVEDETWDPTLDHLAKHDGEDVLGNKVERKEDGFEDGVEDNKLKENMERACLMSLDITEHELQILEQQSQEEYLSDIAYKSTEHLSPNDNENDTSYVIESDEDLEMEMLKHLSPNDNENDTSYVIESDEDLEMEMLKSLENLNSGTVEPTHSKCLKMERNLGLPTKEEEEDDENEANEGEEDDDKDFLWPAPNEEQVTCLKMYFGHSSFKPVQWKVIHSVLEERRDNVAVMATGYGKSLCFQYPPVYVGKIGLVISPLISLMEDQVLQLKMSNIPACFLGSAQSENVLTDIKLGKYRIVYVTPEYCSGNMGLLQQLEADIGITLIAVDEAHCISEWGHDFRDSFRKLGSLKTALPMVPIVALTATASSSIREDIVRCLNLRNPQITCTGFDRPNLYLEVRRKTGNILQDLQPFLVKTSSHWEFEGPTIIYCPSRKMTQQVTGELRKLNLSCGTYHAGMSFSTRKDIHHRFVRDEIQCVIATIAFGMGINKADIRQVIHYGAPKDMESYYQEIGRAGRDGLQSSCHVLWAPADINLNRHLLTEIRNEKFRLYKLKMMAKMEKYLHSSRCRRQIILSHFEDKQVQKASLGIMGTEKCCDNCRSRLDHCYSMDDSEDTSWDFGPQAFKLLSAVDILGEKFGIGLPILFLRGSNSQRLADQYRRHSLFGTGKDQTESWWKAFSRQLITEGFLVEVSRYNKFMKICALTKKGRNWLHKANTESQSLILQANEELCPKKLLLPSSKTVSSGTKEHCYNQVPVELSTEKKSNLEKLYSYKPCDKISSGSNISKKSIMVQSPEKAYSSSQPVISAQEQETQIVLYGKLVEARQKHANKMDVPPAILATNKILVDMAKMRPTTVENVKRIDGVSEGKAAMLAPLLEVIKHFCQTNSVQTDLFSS
Method: Compounds of the examples were tested for WRN helicase activity. DNA encoding the target protein, 6×HIS-TEV-WRN-517-945, was produced, cloned, and transfected as detailed in Example D. To determine the inhibitory properties of the compounds, a 384 wells plate-based Helicase assay was set up to measure the extent of DNA unwinding (Helicase) activity of WRN. The WRN Helicase assay was designed to measure increase in fluorescence signal using a fluorescence based, donor-quencher paired forked dsDNA oligomer substrate (custom synthesis from Sigma-Aldrich) prepared by annealing equal amounts of oligo GPat-1 ([BHQ2][…]) and oligo GPat-2 ([…][TAM]). Continuous measurement of fluorescent signal was used to optimize the buffer conditions, concentration of enzyme (WRN), concentration of substrates (ATP & dsDNA), and the linearity of the Helicase reaction. All solutions were prepared in the following assay buffer: 50 mM Tris-HCl, pH-7.5, 2 mM MgCl2, 50 mM NaCl, 1 mM EGTA, 0.01% P-20, 0.05% BSA, and 2 mM DTT prepared with nuclease free water.
A serial dilution (1:3 scheme) of the compounds was prepared in neat DMSO and 100 nL of the compounds was dispensed in the Greiner black low volume (Greiner #784076) 384 wells assay plate. A 1-hr pre-incubation of the compounds with enzyme was included. A His-tagged construct of WRN (AA S2-S1235) was produced and used for the ATPase assay. Maximum inhibition control wells were set up with the addition of only assay buffer, and no inhibition control wells were set up with neat DMSO without test compounds. The reaction was initiated by addition of 5 μL substrate mix (200 μM ultrapure ATP, and 50 nM dsDNA prepared in assay buffer) and incubated at 25° C. for 35 min. A typical Helicase reaction consists of 25 nM forked dsDNA, 100 μM ATP, and 1 nM WRN prepared in assay buffer. The WRN Helicase reaction was quenched by the addition of 5 μL ‘STOP’ solution containing 100 mM EDTA (final EDTA concentration 33.33 mM) prepared in assay buffer. The plates were read on BMG PHERAstar FSX using 540/590 module to measure an increase of fluorescence. Data analysis was carried out using the Genedata software following % of control normalization. Fitting parameters include dose response IC50, Hill slope (n), maximum inhibition (S∞), and minimum inhibition (S0). The reported IC50 values for compounds in this invention are the geometric means of at least 2 independent replicates.

[2] = target: T1, WRN; experiment: WRN ATPase activity assay (ADP-Glo); format: biochemical; settings: 1-hr pre-incubation with enzyme; 25 nM forked dsDNA, 100 μM ATP, 1 nM WRN; geometric mean of at least 2 replicates
Method: Compounds of the Examples were tested for WRN ATPase activity. WRN ATPase activity catalyzes ATP hydrolysis to produce ADP and phosphate. DNA encoding the target protein, 6×HIS-TEV-WRN-517-945, was produced, cloned, and transfected as detailed in Example D. The amount of ADP produced was measured using ADP-Glo™ Kinase Assay kit from Promega Corporation in a Greiner white regular volume 384 wells assay plate (Greiner #781075). Data was normalized to a standard curve generated using various ADP concentrations and the corresponding luminescent signal intensities at each concentration. The assay conditions were optimized for enzyme concentration (WRN), substrate concentrations (ATP & dsDNA), and the linearity of the ATPase reaction, in the following assay buffer: 50 mM Tris-HCl, pH-7.5, 2 mM MgCl2, 50 mM NaCl, 1 mM EGTA, 0.01% P-20, 0.05% BSA, and 2 mM DTT prepared with nuclease free water.
A serial dilution (1:3 scheme) of the compounds were prepared in neat DMSO, with 100 nL of the compounds dispensed in the 384 wells assay plate. A 1-hr pre-incubation of the compounds with enzyme was included. A His-tagged construct of WRN (AA S2-S1235) was produced and used for the ATPase assay. Maximum inhibition control wells were set up with the addition of only assay buffer, and no inhibition control wells were set up with neat DMSO without test compounds. The reaction was initiated by addition of 5 μL substrate mix (200 μM ultrapure ATP, and 50 nM dsDNA prepared in assay buffer) and incubated at 25° C. for 35 min. A forked dsDNA oligomer substrate was prepared by annealing equal amounts of oligo GPat-1 ([BHQ2][…]) and oligo GPat-2 ([…][TAM]) and was used as dsDNA substrate for WRN ATPase assay. A typical ATPase reaction consists of 25 nM forked dsDNA, 100 μM ATP, and 1 nM WRN prepared in assay buffer. The WRN ATPase reaction was stopped by the addition of 5 μL of ADP-Glo Reagent from ADP-Glo™ Kinase Assay kit and incubated for 40 min to deplete the unreacted ATP. Afterwards, 5 μL of Kinase Detection Reagent from the ADP-Glo™ Kinase Assay kit was added and incubated for 1 hr for the development of luminescence signal.
Luminesce signals were measured on BMG PHERAstar FSX using luminescence protocol. Data analysis was carried out using Genedata software following % of control normalization. Fitting parameters include dose response IC50, Hill slope (n), maximum inhibition (S∞), and minimum inhibition (S0). The reported IC50 values for compounds in this invention are the geometric means of at least 2 independent replicates.

| IC50 [1] [nM] | IC50 [2] [nM] | Structure (SMILES) |
| --- | --- | --- |
| 100 to 500 | 100 to 500 | C=CC(=O)Nc1ccccc1-c1c(C)nc2n(CC(=O)Nc3ccc(F)cc3)c(CC)c(-c3ccccc3)c(=O)n12 [Example 6, N-(2-(7-Ethyl-8-(2-((4-fluorophenyl)amino)-2-oxoethyl)-2-methyl-5-oxo-6-phenyl-5,8-dihydroimidazo[1,2-a]pyrimidin-3-yl)phenyl)acrylamide] |
| < 100 | < 100 | C=CS(=O)(=O)Nc1ccccc1-c1c(C)nc2n(CC(=O)Nc3ccc(F)cc3)c(CC)c(-c3ccccc3)c(=O)n12 [Example 7, 2-(7-Ethyl-2-methyl-5-oxo-6-phenyl-3-(2-(vinylsulfonamido)phenyl)imidazo[1,2-a]pyrimidin-8(5H)-yl)-N-(4-fluorophenyl)acetamide] |
| < 100 | < 100 | C=CC(=O)Nc1ccccc1-c1c(C)nc2n(CC(=O)Nc3ccc(C(F)(F)F)cc3)c(CC)c(C)c(=O)n12 [Example 8, N-(2-(7-Ethyl-2,6-dimethyl-5-oxo-8-(2-oxo-2-((4-(trifluoromethyl)phenyl)amino)ethyl)-5,8-dihydroimidazo[1,2-a]pyrimidin-3-yl)phenyl)acrylamide] |
| < 100 | < 100 | C=CC(=O)Nc1ccccc1-c1c(C)nc2n(CC(=O)Nc3ccc(C(F)(F)F)cc3)c(CC)c(-c3ccc(C(=O)NCC)cc3)c(=O)n12 [Example 9, 4-(3-(2-Acrylamidophenyl)-7-ethyl-2-methyl-5-oxo-8-(2-oxo-2-((4-(trifluoromethyl)phenyl)amino)ethyl)-5,8-dihydroimidazo[1,2-a]pyrimidin-6-yl)-N-ethylbenzamide] |
| < 100 | < 100 | C=CC(=O)Nc1ccccc1-c1c(C)nc2n(CC(=O)Nc3ccc(C(F)(F)F)cc3)c(CC)c(-c3ccc(C(=O)NC)nc3)c(=O)n12 [Example 10, 5-(3-(2-Acrylamidophenyl)-7-ethyl-2-methyl-5-oxo-8-(2-oxo-2-((4-(trifluoromethyl)phenyl)amino)ethyl)-5,8-dihydroimidazo[1,2-a]pyrimidin-6-yl)-N-methylpicolinamide] |

The remaining lines, values behind:

| Structure (SMILES) | IC50 [1] [nM] | IC50 [2] [nM] |
| --- | --- | --- |
| C=CC(=O)Nc1ccccc1-c1c(CC)n(CC(=O)Nc2ccc(C(F)(F)F)cc2)c2nc(C)c(C)n2c1=O [Example 1, N-(2-(7-ethyl-2,3-dimethyl-5-oxo-8-(2-oxo-2-((4-(trifluoromethyl)phenyl)amino)ethyl)-5,8-dihydroimidazo[1,2-a]pyrimidin-6-yl)phenyl)acrylamide] | 100 to 500 | 100 to 500 |
| C=CC(=O)Nc1ccccc1-c1c(CC)n(CC(=O)Nc2ccc(C(F)(F)F)cc2)c2nc(-c3ccccc3)cn2c1=O [Example 2, N-(2-(7-Ethyl-5-oxo-8-(2-oxo-2-((4-(trifluoromethyl)phenyl)amino)ethyl)-2-phenyl-5,8-dihydroimidazo[1,2-a]pyrimidin-6-yl)phenyl)acrylamide] | 100 to 500 | 100 to 500 |
| C=CC(=O)Nc1ccccc1-c1c(CC)n(CC(=O)Nc2ccc(F)cc2)c2nc(C)c(C)n2c1=O [Example 3, N-(2-(7-Ethyl-8-(2-((4-fluorophenyl)amino)-2-oxoethyl)-2,3-dimethyl-5-oxo-5,8-dihydroimidazo[1,2-a]pyrimidin-6-yl)phenyl)acrylamide] | < 100 | < 100 |
| C=CC(=O)Nc1ccccc1-c1c(CC)n(CC(=O)Nc2ccc(F)cc2Cl)c2nc(C)c(C)n2c1=O [Example 4, N-(2-(8-(2-((2-chloro-4-fluorophenyl)amino)-2-oxoethyl)-7-ethyl-2,3-dimethyl-5-oxo-5,8-dihydroimidazo[1,2-a]pyrimidin-6-yl)phenyl)acrylamide] | 100 to 500 | 100 to 500 |
| C=CC(=O)Nc1ccccc1-c1c(CC)n(CC(=O)Nc2ccc(C(F)(F)F)cc2)c2nc(C)c(-c3ccccc3)n2c1=O [Example 5, N-(2-(7-ethyl-2-methyl-5-oxo-8-(2-oxo-2-((4-(trifluoromethyl)phenyl)amino)ethyl)-3-phenyl-5,8-dihydroimidazo[1,2-a]pyrimidin-6-yl)phenyl)acrylamide] | 100 to 500 | 100 to 500 |
